target: T1, Cystic fibrosis transmembrane conductance regulator [1-507,509-1480] (Human, UniProt P13569, DEL508-508); test: Chamber Assay of CFTR-mediated short-circuit currents
T1 construct: 1-507,509-1480
Procedure: ssing chamber experiments were performed using human bronchial epithelial (HBE) cells derived from CF subjects heterozygous for F508del and a minimal function CFTR mutation (F508del/MF-HBE) and cultured as previously described (Neuberger T, Burton B, Clark H, Van Goor F Methods Mol Biol 2011:741:39-54). After four days the apical media was removed, and the cells were grown at an air liquid interface for >14 days prior to use. […] To isolate the CFTR-mediated short-circuit (ISC) current, F508del/MF-HBE grown on Costar Snapwell cell culture inserts were mounted in an Ussing chamber and the transepithelial ISC was measured under voltage-clamp recording conditions (Vhold= 0 mV) at 37 °C. The basolateral solution contained (in mM) 145 NaCl, 0.83 K2HPO4, 3.3 KH2PO4, 1.2 MgCl2, 1.2 CaCl2, 10 Glucose, 10 HEPES (pH adjusted to 7.4 with NaOH) and the apical solution contained (in mM) 145 NaGluconate, 1.2 MgCl2, 1.2 CaCl2, 10 glucose, 10 HEPES (pH adjusted to 7.4 with NaOH) and 30 µM amiloride to block the epithelial sodium channel. Forskolin (20 µM) was added to the apical surface to activate CFTR, followed by apical addition of a CFTR inhibitor cocktail consisting of BPO, GlyH-101 and CFTR inhibitor 172 (each at 20 µM final assay concentration) to specifically isolate CFTR currents. The CFTR-mediated ISC (µA/cm2) for each condition was determined from the peak forskolin response to the steady-state current following inhibition.

T1 sequence (P13569 as listed by the source): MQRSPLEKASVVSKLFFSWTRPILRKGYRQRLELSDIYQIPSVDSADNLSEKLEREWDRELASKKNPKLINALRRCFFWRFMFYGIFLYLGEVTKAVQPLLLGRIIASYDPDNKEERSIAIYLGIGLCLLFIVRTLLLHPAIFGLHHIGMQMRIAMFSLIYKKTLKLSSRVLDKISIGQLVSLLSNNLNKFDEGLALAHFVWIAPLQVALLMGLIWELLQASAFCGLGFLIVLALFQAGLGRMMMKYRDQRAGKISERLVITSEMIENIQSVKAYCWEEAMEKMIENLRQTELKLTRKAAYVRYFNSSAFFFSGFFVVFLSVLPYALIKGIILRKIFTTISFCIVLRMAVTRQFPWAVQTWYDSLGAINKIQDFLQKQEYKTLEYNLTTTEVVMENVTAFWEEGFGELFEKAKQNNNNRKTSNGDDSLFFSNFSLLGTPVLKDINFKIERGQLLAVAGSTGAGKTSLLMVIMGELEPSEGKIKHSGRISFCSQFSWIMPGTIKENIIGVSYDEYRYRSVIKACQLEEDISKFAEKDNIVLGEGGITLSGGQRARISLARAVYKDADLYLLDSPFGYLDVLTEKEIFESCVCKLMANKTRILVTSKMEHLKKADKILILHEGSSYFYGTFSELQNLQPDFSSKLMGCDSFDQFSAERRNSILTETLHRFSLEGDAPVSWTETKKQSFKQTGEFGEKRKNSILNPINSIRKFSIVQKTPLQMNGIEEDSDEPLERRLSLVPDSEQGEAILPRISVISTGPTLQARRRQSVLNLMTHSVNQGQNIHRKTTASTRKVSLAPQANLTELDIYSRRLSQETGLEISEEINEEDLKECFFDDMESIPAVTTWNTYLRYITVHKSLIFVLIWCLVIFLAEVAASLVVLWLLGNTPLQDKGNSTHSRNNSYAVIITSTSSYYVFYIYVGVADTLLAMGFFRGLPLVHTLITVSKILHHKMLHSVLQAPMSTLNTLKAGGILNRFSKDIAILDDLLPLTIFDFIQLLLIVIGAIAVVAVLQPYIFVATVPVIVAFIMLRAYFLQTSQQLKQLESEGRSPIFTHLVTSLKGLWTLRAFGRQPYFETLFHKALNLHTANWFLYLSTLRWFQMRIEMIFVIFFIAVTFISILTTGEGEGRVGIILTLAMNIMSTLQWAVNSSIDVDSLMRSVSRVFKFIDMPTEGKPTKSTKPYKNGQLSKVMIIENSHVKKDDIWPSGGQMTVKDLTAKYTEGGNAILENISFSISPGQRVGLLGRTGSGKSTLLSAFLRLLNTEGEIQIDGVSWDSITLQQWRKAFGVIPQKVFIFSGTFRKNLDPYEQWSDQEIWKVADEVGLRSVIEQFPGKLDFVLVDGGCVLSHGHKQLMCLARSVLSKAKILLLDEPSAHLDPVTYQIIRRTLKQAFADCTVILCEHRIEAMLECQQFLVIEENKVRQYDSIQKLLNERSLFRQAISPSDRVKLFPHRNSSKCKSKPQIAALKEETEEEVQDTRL

EC50, < 0.5 µM:
Nc1cc(C(F)(F)F)c2nc1-c1nnc(o1)[C@](O)(C(F)(F)F)CCCCCC[C@H]1CCCN21 [WO2022109573, Compound 25]
Nc1cc(C(F)(F)F)c2nc1-c1nnc(o1)[C@@](O)(C(F)(F)F)CCCCC1CCN2C1 (stereo partly specified) [WO2022109573, Compound 8]
Nc1cc(C(F)(F)F)c2nc1-c1nnc(o1)C(=O)CCCCC[C@@H]1CCCN21 [WO2022109573, Compound 36]
Nc1cc(C(F)(F)F)c2nc1-c1nnc(o1)[C@](O)(C(F)(F)F)CCCCC[C@@H]1CCCN21 [WO2022109573, Compound 4]
Nc1cc(C(F)(F)F)c2nc1-c1nnc(o1)[C@](O)(C(F)(F)F)CCCCC[C@H]1CCCN21 [WO2022109573, Compound 7]
Nc1cc(C(F)(F)F)c2nc1-c1nnc(o1)[C@@](O)(C(F)(F)F)CCCC[C@@H]1CCCN21 [WO2022109573, Compound 17]
Nc1cc(C(F)(F)F)c2nc1-c1nnc(o1)C(O)(C(F)(F)F)CCCC[C@@H]1CCCN21 (stereo partly specified) [WO2022109573, Compound 32]
Nc1cc(C(F)(F)F)c2nc1-c1nnc(o1)[C@@](O)(C(F)(F)F)CCCCCC[C@@H]1CCCN21 [WO2022109573, Compound 23]
CC1(O)CCCCC[C@@H]2CCCN2c2nc(c(N)cc2C(F)(F)F)C2=NN=C1O2 (stereo partly specified) [WO2022109573, Compound 45]
Nc1cc(C(F)(F)F)c2nc1-c1nnc(o1)[C@](O)(C(F)(F)F)CCCCC1CCN2C1 (stereo partly specified) [WO2022109573, Compound 9]
Nc1cc(C(F)(F)F)c2nc1-c1nnc(o1)/C(=N\O)CCCCC[C@@H]1CCCN21 [WO2022109573, Compound 31]
Nc1cc(C(F)(F)F)c2nc1-c1nnc(o1)[C@@](O)(C(F)(F)F)CCCC[C@H]1CCCN21 [WO2022109573, Compound 18]
CC1(C)CC2CCCCCC(O)(C(F)(F)F)C3=NN=C(O3)c3nc(c(C(F)(F)F)cc3N)N2C1 (stereo unspecified) [WO2022109573, Compound 29]
Nc1cc(C(F)(F)F)c2nc1-c1nnc(o1)C(O)(C(F)(F)F)CCCCCCN2CCO (stereo unspecified) [WO2022109573, Compound 41]
CCNc1cc(C(F)(F)F)c2nc1-c1nnc(o1)[C@@](O)(C(F)(F)F)CCCCC[C@@H]1CCCN21 [WO2022109573, Compound 14]
CN1CCCCCCC(O)(C(F)(F)F)C2=NN=C(O2)c2nc1c(C(F)(F)F)cc2N (stereo unspecified) [WO2022109573, Compound 19]
Nc1cc(C(F)(F)F)c2nc1-c1nnc(o1)C(O)CCCCC[C@@H]1CCCN21 (stereo partly specified) [WO2022109573, Compound 21]
Nc1cc(C(F)(F)F)c2nc1-c1nnc(o1)C(O)(C(F)(F)F)CCCC(=O)N1CCN2CC1 (stereo unspecified) [WO2022109573, Compound 37]
CCOC(=O)CN1CCCCCCC(O)(C(F)(F)F)C2=NN=C(O2)c2nc1c(C(F)(F)F)cc2N (stereo unspecified) [WO2022109573, Compound 46]
Nc1cc(C(F)(F)F)c2nc1-c1nnc(o1)[C@@](O)(C(F)(F)F)CCCCCC[C@H]1CCCN21 [WO2022109573, Compound 24]
CNc1cc(C(F)(F)F)c2nc1-c1nnc(o1)[C@@](O)(C(F)(F)F)CCCCC[C@@H]1CCCN21 [WO2022109573, Compound 13]
